Laboratory results: patent publication US20260078120A1, “SUBSTITUTED PYRIDOPYRIMIDINONES” (MIRATI THERAPEUTICS, INC., priority 2022, published 2026)

How the values were obtained:
[1] = system: SKBR3 (PI3Kα wild type) cells; assay: CellTiter-Glo 2.0 luminescent cell viability assay, 72 hours, SKBR3 cells; format: cell-based; details: Homo sapiens, SK-BR-3, 72 h, SKBR3 (PI3Kα wild type) cells, CellTiter-Glo, approximately 72 hours; read-out: SKBR3 (WT) Viability IC50
Summary of the method: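 Viability measured via CTG luminescence following roughly 72 hours of compound exposure at 37° C. Dosing used a 10 um starting concentration diluted 1:4 over 10 points; percent-of-vehicle data fitted with a variable-slope four-parameter model for IC50.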

[2] = system: T47D (PI3Kα H1047R mutant) cells; assay: CellTiter-Glo 2.0 luminescent cell viability assay, 72 hours, T47D cells; format: cell-based; details: Homo sapiens, T47D, 72 h, T47D (PI3Kα H1047R mutant) cells, CellTiter-Glo, approximately 72 hours; read-out: T47D (H1047R mutant) Viability IC50
Summary of the method: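 Cells seeded at 1000 per well overnight were dosed with a 10-concentration, 1:4 series starting at 10 µM and incubated ~72 h at 37° C. Viability was read by CellTiter-Glo 2.0 luminescence after 30 min at room temperature. IC50 came from four-parameter fits of percent vehicle control.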

Row | IC50 [1] | IC50 [2] | Structure (SMILES)
1 | > 10 µM | 495 nM | Cc1cc([C@@H](C)Nc2ccccc2C(=O)O)c2nc(N3CCC4(CC3)CC4(F)F)c(C)c(=O)n2c1 [Example 11-219, (R)-2-((1-(2-(1,1-difluoro-6-azaspiro[2.5]octan-6-yl)-3,7-dimethyl-4-oxo-4H-pyrido[1,2-a]pyrimidin-9-yl)ethyl)amino)benzoic acid]
2 | > 10 µM | 310 nM | Cc1cc([C@@H](C)Nc2ccccc2C(=O)O)c2nc(N3CC4C5CCC5C4C3)c(C)c(=O)n2c1 (stereo partly drawn) [Example 11-33, 2-(((1R)-1-(3,7-dimethyl-4-oxo-2-(8-azatricyclo[4.3.0.0^2,5]nonan-8-yl)-4H-pyrido[1,2-a]pyrimidin-9-yl)ethyl)amino)benzoic acid]
3 | > 10 µM | 156 nM | Cc1cc([C@@H](C)Nc2ccccc2C(=O)O)c2nc(N3CC4(CCC4)C3)c(C#N)c(=O)n2c1 [Example 11-323, (R)-2-((1-(3-cyano-7-methyl-4-oxo-2-(azaspiro[3.3]heptan-2-yl)-4H-pyrido[1,2-a]pyrimidin-9-yl)ethyl)amino)benzoic acid]
4 | > 10 µM | 144 nM | Cc1cc([C@@H](C)Nc2ccccc2C(=O)O)c2nc(N3CCN(c4cccc(C#N)c4)CC3)c(C#N)c(=O)n2c1 [Example 11-225, (R)-2-((1-(3-cyano-2-(4-(3-cyanophenyl)piperazin-1-yl)-7-methyl-4-oxo-4H-pyrido[1,2-a]pyrimidin-9-yl)ethyl)amino)benzoic acid]
5 | > 10 µM | 9090 nM | CC(Nc1ccccc1C(=O)O)c1cc(C(F)(F)F)cn2c(=O)cc(N3CCCCC3)nc12 (stereo not shown) [Example 11-416, 2-((1-(4-oxo-2-(piperidin-1-yl)-7-(trifluoromethyl)-4H-pyrido[1,2-a]pyrimidin-9-yl)ethyl)amino)benzoic acid]
6 | > 10 µM | 252 nM | Cc1cc([C@@H](C)Nc2ccccc2C(=O)O)c2nc(N3CCN(c4ccccc4F)CC3)c(C)c(=O)n2c1 [Example 11-440, (R)-2-((1-(2-(4-(2-fluorophenyl)piperazin-1-yl)-3,7-dimethyl-4-oxo-4H-pyrido[1,2-a]pyrimidin-9-yl)ethyl)amino)benzoic acid]
7 | > 10 µM | 272 nM | Cc1cc([C@@H](C)Nc2ccccc2C(=O)O)c2nc(N3CCC(C#N)CC3)c(C)c(=O)n2c1 [Example 11-73, (R)-2-((1-(2-(4-cyanopiperidin-1-yl)-3,7-dimethyl-4-oxo-4H-pyrido[1,2-a]pyrimidin-9-yl)ethyl)amino)benzoic acid]
8 | > 10 µM | 408 nM | Cc1cc([C@@H](C)Nc2ccccc2C(=O)O)c2nc(N3CCN(c4ccncc4)CC3)c(C)c(=O)n2c1 [Example 11-441, (R)-2-((1-(3,7-dimethyl-4-oxo-2-(4-(pyridin-4-yl)piperazin-1-yl)-4H-pyrido[1,2-a]pyrimidin-9-yl)ethyl)amino)benzoic acid]
9 | > 10 µM | 3910 nM | CC(=O)N1CC=C(c2cc(=O)n3cc(C)cc([C@@H](C)Nc4ccccc4C(=O)O)c3n2)CC1 [Example 11-379, (R)-2-((1-(2-(1-acetyl-1,2,3,6-tetrahydropyridin-4-yl)-7-methyl-4-oxo-4H-pyrido[1,2-a]pyrimidin-9-yl)ethyl)amino)benzoic acid]
10 | > 10 µM | 255 nM | Cc1cc([C@@H](C)Nc2ccccc2C(=O)O)c2nc(N3CC(C(F)F)C3)c(C)c(=O)n2c1 [Example 11-105, (R)-2-((1-(2-(3-(difluoromethyl)azetidin-1-yl)-3,7-dimethyl-4-oxo-4H-pyrido[1,2-a]pyrimidin-9-yl)ethyl)amino)benzoic acid]
11 | > 10 µM | 1650 nM | Cc1cc(C(C)Nc2ccccc2C(=O)O)c2nc(N3CCCCC3)c(C3CC3)c(=O)n2c1 (stereo not shown) [Example 11-413, 2-((1-(3-cyclopropyl-7-methyl-4-oxo-2-(piperidin-1-yl)-4H-pyrido[1,2-a]pyrimidin-9-yl)ethyl)amino)benzoic acid]
12 | > 10 µM | 241 nM | C[C@@H](Nc1ccccc1C(=O)O)c1cc(C(F)F)cn2c(=O)c(C#N)c(N3CCC(F)(F)CC3)nc12 [Example 11-168, (R)-2-((1-(3-cyano-7-(difluoromethyl)-2-(4,4-difluoropiperidin-1-yl)-4-oxo-4H-pyrido[1,2-a]pyrimidin-9-yl)ethyl)amino)benzoic acid]
13 | > 10 µM | 880 nM | Cc1cc([C@@H](C)Nc2ccccc2C(=O)O)c2nc(N3CCN(C4COC4)CC3)c(C)c(=O)n2c1 [Example 11-153, (R)-2-((1-(3,7-dimethyl-2-(4-(oxetan-3-yl)piperazin-1-yl)-4-oxo-4H-pyrido[1,2-a]pyrimidin-9-yl)ethyl)amino)benzoic acid]
14 | 4.31 µM | 2200 nM | Cc1cc([C@@H](C)Nc2ccccc2C(=O)O)c2nc(O[C@H]3CCOC3)c(C#N)c(=O)n2c1 [Example 11-248, 2-(((R)-1-(3-cyano-7-methyl-4-oxo-2-(((S)-tetrahydrofuran-3-yl)oxy)-4H-pyrido[1,2-a]pyrimidin-9-yl)ethyl)amino)benzoic acid]
15 | > 10 µM | 56.6 nM | Cc1cc([C@@H](C)Nc2ccccc2C(=O)O)c2nc(N3Cc4ccc(F)cc4C3)c(C)c(=O)n2c1 [Example 10-134, (R)-2-((1-(2-(5-fluoroisoindolin-2-yl)-3,7-dimethyl-4-oxo-4H-pyrido[1,2-a]pyrimidin-9-yl)ethyl)amino)benzoic acid]
16 | > 10 µM | 2890 nM | Cc1cc(C(C)Nc2c(F)cccc2C(=O)O)c2nc(N3Cc4ccccc4C3)c(C)c(=O)n2c1 (stereo not shown) [Example 11-363, 3-fluoro-2-((1-(2-(isoindolin-2-yl)-3,7-dimethyl-4-oxo-4H-pyrido[1,2-a]pyrimidin-9-yl)ethyl)amino)benzoic acid]
17 | > 10 µM | 195 nM | Cc1cc([C@@H](C)Nc2ccccc2C(=O)O)c2nc(N3CCCC(F)(F)C3)c(C#N)c(=O)n2c1 [Example 11-297, (R)-2-((1-(3-cyano-2-(3,3-difluoropiperidin-1-yl)-7-methyl-4-oxo-4H-pyrido[1,2-a]pyrimidin-9-yl)ethyl)amino)benzoic acid]
18 | > 10 µM | 257 nM | Cc1cc([C@@H](C)Nc2ccccc2C(=O)O)c2nc(N3CC(F)C3)c(C)c(=O)n2c1 [Example 11-114, (R)-2-((1-(2-(3-fluoroazetidin-1-yl)-3,7-dimethyl-4-oxo-4H-pyrido[1,2-a]pyrimidin-9-yl)ethyl)amino)benzoic acid]
19 | > 10 µM | 1980 nM | Cc1ccc(C#N)c(N2CCN(c3nc4c([C@@H](C)Nc5ccccc5C(=O)O)cc(C)cn4c(=O)c3C)[C@H](C)C2)c1 [Example 11-74, 2-(((R)-1-(2-((R)-4-(2-cyano-5-methylphenyl)-2-methylpiperazin-1-yl)-3,7-dimethyl-4-oxo-4H-pyrido[1,2-a]pyrimidin-9-yl)ethyl)amino)benzoic acid]
20 | > 10 µM | 531 nM | Cc1cc([C@@H](C)Nc2ccccc2C(=O)O)c2nc(N3CC(F)(F)C[C@H]3C)c(C)c(=O)n2c1 [Example 11-125, 2-(((R)-1-(2-((R)-4,4-difluoro-2-methylpyrrolidin-1-yl)-3,7-dimethyl-4-oxo-4H-pyrido[1,2-a]pyrimidin-9-yl)ethyl)amino)benzoic acid]
21 | > 10 µM | 383 nM | Cc1cc([C@@H](C)Nc2ccc(Cl)cc2C(=O)O)c2nc(N3Cc4ccccc4C3)c(C)c(=O)n2c1 [Example 11-280, (R)-5-chloro-2-((1-(2-(isoindolin-2-yl)-3,7-dimethyl-4-oxo-4H-pyrido[1,2-a]pyrimidin-9-yl)ethyl)amino)benzoic acid]
22 | > 10 µM | 306 nM | Cc1cc([C@@H](C)Nc2ccc(F)cc2C(=O)O)c2nc(N3CCC(F)(F)CC3)c(C#N)c(=O)n2c1 [Example 11-90, (R)-2-((1-(3-cyano-2-(4,4-difluoropiperidin-1-yl)-7-methyl-4-oxo-4H-pyrido[1,2-a]pyrimidin-9-yl)ethyl)amino)-5-fluorobenzoic acid]
23 | > 10 µM | > 10000 nM | Cc1cc(C(C)Nc2ccccc2C(=O)O)c2nc(N3CCCC(O)C3)cc(=O)n2c1 (stereo not shown) [Example 11-343, 2-((1-(2-(3-hydroxypiperidin-1-yl)-7-methyl-4-oxo-4H-pyrido[1,2-a]pyrimidin-9-yl)ethyl)amino)benzoic acid]
24 | 1.27 µM | 113 nM | Cc1cc(C(C)Nc2ccccc2C(=O)O)c2nc(N3CCN(c4ccc(C#N)cc4)CC3)cc(=O)n2c1 (stereo not shown) [Example 11-334, 2-((1-(2-(4-(4-cyanophenyl)piperazin-1-yl)-7-methyl-4-oxo-4H-pyrido[1,2-a]pyrimidin-9-yl)ethyl)amino)benzoic acid]
25 | > 10 µM | 195 nM | Cc1cc([C@H](C)Nc2ccc(Cl)nc2C(=O)O)c2nc(N3CCCCC3)c(C)c(=O)n2c1 [Example 11-357, (S)-6-chloro-3-((1-(3,7-dimethyl-4-oxo-2-(piperidin-1-yl)-4H-pyrido[1,2-a]pyrimidin-9-yl)ethyl)amino)picolinic acid]

Row | Structure (SMILES) | IC50 [1] | IC50 [2]
26 | Cc1cc([C@@H](C)Nc2ccccc2C(=O)O)c2nc(N3C4CCC3CC(F)(F)C4)c(C)c(=O)n2c1 [Example 11-189, 2-(((1R)-1-(2-(3,3-difluoro-8-azabicyclo[3.2.1]octan-8-yl)-3,7-dimethyl-4-oxo-4H-pyrido[1,2-a]pyrimidin-9-yl)ethyl)amino)benzoic acid] | > 10 µM | 261 nM
